Source: patent US5643954A, “Method of preventing and alleviating stress in a healthy mammal in need thereof” (priority 1993, dated 1997)
Read-outs that look alike come from different tables or passages of the source.

Experiments:
[1] = orientation motive activity of mice, automated registration of movements; type: in vivo, mice (male); details: for Number of movements in 10 min in register: M ± m
Procedure: (§1) Experiments were conducted in vivo on male mice weighing 18-22 g and male rats weighing 200-250 g, as well as in vitro on the isolated organs: a guinea pig's ileum and a rat's seminal effervesces.

[2] = test system: guinea pig's ileum (acetylcholine); details: for Amplitude of concentration in % to control / Amplitude of concentration: acetylcholine; for Amplitude of concentration: M ± m
Procedure: as §1

[3] = test system: rat's seminal effervesce (adrenaline); details: for Amplitude of concentration in % to control / Amplitude of concentration: adrenaline; for Amplitude of concentration: M ± m
Procedure: as §1

[4] = test system: bioelectric activity of rats' brain; experiment: spontaneous bioelectrical activity of rats' brain (EEG, implanted electrodes); type: in vivo; design: Amplitude, slow activ. / Amplitude, fast activ.: unit not given here; details: for Amplitude, fast activ. / Amplitude, slow activ.: M ± m
[5] = for Addition: after taking
Source text: A test permits evaluating the rate of counting-computing operations per unit time (in each and every minute), duration of execution of the task (time spent for adding 184 pairs of numbers), the number of mistakes, the speed of attention switching and the degree of weariness.

[6] = for Number of errors per 500 symbols: M ± m
Procedure: Examination of the mental capacity dynamics of the tested was performed in two stages.

[7] = type: in vivo; details: in vivo
[8] = test system: acute stress action (electric painful influence)
Source text: The test and control young rats were subjected to a single electric painful influence in a matter of a second ("electric floor" 59 hertz, 35 v). […] Sixty minutes after, the behaviour of animals was investigated in the "open field" test.

hexenal effects = details: M ± m
phenamine stereotypy = details: M ± m
apomorphine stereotypy = details: M ± m
arecoline hyperkinesia = details: M ± m
strychnine effects = details: for Threshold doses Strychnine 0,01% solution, death of animal / Threshold doses Strychnine 0,01% solution, start of twitch: M ± m
[9] = test system: electrical-shock-caused paroxysms
[10] = after dose, M ± m
[11] = taken once or regularly (14 days)
[12] = 30 min after taking the claimed preparation
[13] = week's fourth day, after classes
[14] = week's fourth day, before classes, after dose
[15] = week's second day, after classes
[16] = week's second day, before classes, after dose
[17] = 200 mg/kg single administration
[18] = 40 mg/kg week-long introduction
[19] = taken 30 minutes before an exam

aminoacetic acid [claimed preparation]
Number of movements in 10 min in register ([1]; 2 mg/kg intraperitoneally): 371 ± 56
Number of movements in 10 min in register ([1]; 20 mg/kg intraperitoneally): 365 ± 79
Number of movements in 10 min in register ([1]; 40 mg/kg into stomach): 439 ± 70
Number of movements in 10 min in register ([1]; 40 mg/kg intraperitoneally): 324 ± 56
Number of movements in 10 min in register ([1]; 80 mg/kg intraperitoneally): 398 ± 48
Number of movements in 10 min in register ([1]; 200 mg/kg intraperitoneally): 275 ± 23
motor activity ([1]; in words): reduction of animals' motor activity
Amplitude of concentration in % to control ([2]; 1·10^-4 M, 100 µM): 89%
Amplitude of concentration ([2]; 1·10^-4 M): 97.0 ± 1.5 mm
Amplitude of concentration in % to control ([2]; 1·10^-5 M, 10 µM): 99%
Amplitude of concentration ([2]; 1·10^-5 M): 105.0 ± 1.8 mm
Amplitude of concentration in % to control ([2]; 1·10^-6 M, 1 µM): 109%
Amplitude of concentration ([2]; 1·10^-6 M): 116.0 ± 2.4 mm
antagonism with acetylcholine ([2]; in words): without discovering antagonism with said acetylcholine
Amplitude of concentration in % to control ([3]; 1·10^-4 M, 100 µM): 65,5%
Amplitude of concentration ([3]; 1·10^-4 M): 45.0 ± 0.6 mm
Amplitude of concentration in % to control ([3]; 1·10^-5 M, 10 µM): 83%
adrenoblocking action ([3]; 1·10^-5 and 1·10^-4 M): weak and mild adrenoblocking action
Amplitude of concentration in % to control ([3]; 1·10^-6 M, 1 µM): 94%
Amplitude of concentration ([3]; 1·10^-6 M): 65.0 ± 1.2 mm
contracting responses to adrenaline ([3]; in words): suppresses the contracting responses
Amplitude, fast activ. ([4]; 2 mg/kg): 325 ± 24
Amplitude, slow activ. ([4]; 2 mg/kg): 315 ± 14
Maximal effect appearance time from the start of experiment ([4]; 40 mg/kg): 70 min
Nature of effect ([4]; 40 mg/kg): episodic
Nature of effect, episodes ([4]; 40 mg/kg): 1-2 episodes per hr
synchronizing effect on encephalogram ([4]; 40 mg/kg intraperitoneally): tends to call for a synchronizing effect on an encephalogram
Amplitude, fast activ. ([4]; 40 mg/kg): 243 ± 10
Amplitude, slow activ. ([4]; 40 mg/kg): 380 ± 21
cases with reduced time for adding up numbers ([5]; 30 min after single dose): 79.5%
number of errors in counting ([5]; 30 min after single dose): diminishes twice
reduction of time for adding up numbers ([5]; 30 min after single dose): 1.5 to 2 min
Number of mistakes [5, 12]: 1
Those making mistakes [5, 12]: 40%
Speed of addition ([5]; 30 min after taking the claimed preparation, M ± m): 52.0 ± 1.9 pair/min
Addition ([5]; alcoholic abstinence syndrome (2nd day), M ± m): 32.0 ± 1.6 pair/min
Addition ([5]; remission period, M ± m): 51.0 ± 1.8 pair/min
Work without mistakes [6, 13]: 14.3%
Number of errors per 500 symbols [6, 13]: 8.4 ± 1.2
Work without mistakes [6, 14]: 28.6%
Number of errors per 500 symbols [6, 14]: 7.6 ± 1.9
Work without mistakes [6, 15]: 25.0%
Number of errors per 500 symbols [6, 15]: 7.8 ± 1.8
Work without mistakes [6, 16]: 16.5%
Number of errors per 500 symbols [6, 16]: 6.5 ± 1.6
sedative and synchronizing effect on EEG [7]: displaying at the same time a sedative and synchronizing effect on EEG
Intersection of a floor's center ([8]; 2 mg/kg on tongue root 20 min before electric painful influence): 0
Defecation ([8]; 2 mg/kg on tongue root 20 min before electric painful influence, M ± m): 0.4 ± 0.28
stress-protective effect ([8]; preliminarily administered): displays a stress-protective effect and considerably reduces on-stress-dependent excitement manifestations
hexenal duration of sleep (hexenal effects; 2 mg/kg): 36.0 ± 1.8 min
hexenal latent period (hexenal effects; 2 mg/kg): 4.5 ± 0.3 min
hexenal duration of sleep (hexenal effects; 40 mg/kg): 32.0 ± 1.9 min
hexenal latent period (hexenal effects; 40 mg/kg): 4.5 ± 0.6 min
hexenal duration of sleep (hexenal effects; 200 mg/kg): 28.0 ± 1.9 min
hexenal latent period (hexenal effects; 200 mg/kg): 3.8 ± 0.7 min
phenamine duration of stereotypy (phenamine stereotypy; 2 mg/kg): 65.0 ± 2.5 min
phenamine latent period (phenamine stereotypy; 2 mg/kg): 110.0 ± 2.6 s
phenamine duration of stereotypy (phenamine stereotypy; 40 mg/kg): 62.0 ± 1.6 min
phenamine latent period (phenamine stereotypy; 40 mg/kg): 115.0 ± 1.5 s
phenamine duration of stereotypy (phenamine stereotypy; 200 mg/kg): 62.0 ± 2.1 min
phenamine latent period (phenamine stereotypy; 200 mg/kg): 120.0 ± 2.8 s
apomorphine duration of stereotypy (apomorphine stereotypy; 2 mg/kg): 20.0 ± 0.9 min
apomorphine latent period (apomorphine stereotypy; 2 mg/kg): 98.0 ± 1.5 s
apomorphine duration of stereotypy (apomorphine stereotypy; 40 mg/kg): 22.0 ± 0.6 min
apomorphine latent period (apomorphine stereotypy; 40 mg/kg): 104.0 ± 0.9 s
apomorphine duration of stereotypy (apomorphine stereotypy; 200 mg/kg): 20.0 ± 0.5 min
apomorphine latent period (apomorphine stereotypy; 200 mg/kg): 95.5 ± 0.8 s
Arecoline hyperkinesia, duration (arecoline hyperkinesia; 2 mg/kg): 16.5 ± 0.4 min
Arecoline hyperkinesia, duration (arecoline hyperkinesia; 20 mg/kg): 14.8 ± 1.2 min
Arecoline hyperkinesia, duration (arecoline hyperkinesia; 40 mg/kg): 13.8 ± 0.9 min
Arecoline hyperkinesia, duration (arecoline hyperkinesia; 80 mg/kg): 14.5 ± 0.9 min
Arecoline hyperkinesia, duration (arecoline hyperkinesia; 200 mg/kg): 15.6 ± 0.8 min
Threshold doses Strychnine 0,01% solution, death of animal (strychnine effects; 2 mg/kg single administration): 0.21 ± 0.007 mL
Threshold doses Strychnine 0,01% solution, start of twitch (strychnine effects; 2 mg/kg single administration): 0.17 ± 0.008 mL
Threshold doses Strychnine 0,01% solution, death of animal (strychnine effects; 40 mg/kg single administration): 0.21 ± 0.005 mL
Threshold doses Strychnine 0,01% solution, start of twitch (strychnine effects; 40 mg/kg single administration): 0.18 ± 0.007 mL
Threshold doses Strychnine 0,01% solution, death of animal (strychnine effects; 80 mg/kg single administration): 0.18 ± 0.006 mL
Threshold doses Strychnine 0,01% solution, start of twitch (strychnine effects; 80 mg/kg single administration): 0.17 ± 0.005 mL
Threshold doses Strychnine 0,01% solution, death of animal (strychnine effects; [17]): 0.19 ± 0.006 mL
Threshold doses Strychnine 0,01% solution, start of twitch (strychnine effects; [17]): 0.15 ± 0.008 mL
influence on strychnine effects (strychnine effects; in words): does not practically influence said strychnine effects
Maximal electric shock death of animal ([9]; 2 mg/kg single administration): 70%
Maximal electric shock tonico-extensor phase ([9]; 2 mg/kg single administration): 100%
Maximal electric shock death of animal ([9]; 2 mg/kg week-long introduction): 60%
Maximal electric shock tonico-extensor phase ([9]; 2 mg/kg week-long introduction): 100%
Maximal electric shock death of animal ([9]; 40 mg/kg single administration): 40%
Maximal electric shock tonico-extensor phase ([9]; 40 mg/kg single administration): 100%
Maximal electric shock death of animal [9, 18]: 40%
Maximal electric shock tonico-extensor phase [9, 18]: 100%
Maximal electric shock death of animal ([9]; 80 mg/kg single administration): 40%
Maximal electric shock tonico-extensor phase ([9]; 80 mg/kg single administration): 100%
Maximal electric shock death of animal [9, 17]: 70%
Maximal electric shock tonico-extensor phase [9, 17]: 100%
activity towards electrical-shock-caused paroxysms ([9]; in words): inactive towards electrical-shock- caused paroxysms
AMo/Δx ([10]; after testing): 94.8 ± 4.1
Amo ([10]; after testing): 36.4 ± 2.2%
Mo ([10]; after testing): 0.74 ± 0.03 s
Δx ([10]; after testing): 0.38 ± 0.01 s
AMo/Δx ([10]; prior to tests): 83.8 ± 4.0
Amo ([10]; prior to tests): 32.0 ± 2.0%
Mo ([10]; prior to tests): 0.75 ± 0.03 s
Δx ([10]; prior to tests): 0.39 ± 0.01 s
marks exceeding those of the school year [19]: 0.5-1 point
students noting disappearance of fear and internal discomfort [19]: 95%
good and excellent marks 4 and 5 (taken before an exam, chiefly in maths): 80%
weariness, irritation and internal unrest [11]: weariness, irritation and internal unrest significantly abate
